From the NIST ThermoML archive (doi:10.1021/je049777o)
Numbers after ± are expanded uncertainties.

Assay: xn = mol fraction of the nth substance listed
Settings: 101.3 kPa, Liquid

COC(=O)OC [dimethyl carbonate] + CCCCCCC
Settings	mass density [kg/m3]	viscosity [mPa·s]
293.15 K, x1 = 0.1099	709.87 ± 0.66	0.3932 ± 0.0082
293.15 K, x1 = 0.2176	735.33 ± 0.62	0.3924 ± 0.0082
293.15 K, x1 = 0.3229	763.59 ± 0.57	0.4001 ± 0.0082
293.15 K, x1 = 0.4259	794.8 ± 0.51	0.4139 ± 0.0082
293.15 K, x1 = 0.5266	829.38 ± 0.46	0.4321 ± 0.0083
293.15 K, x1 = 0.6252	867.51 ± 0.39	0.4541 ± 0.0085
293.15 K, x1 = 0.7218	910.1 ± 0.32	0.4774 ± 0.0086
293.15 K, x1 = 0.8165	957.71 ± 0.26	0.5078 ± 0.0088
293.15 K, x1 = 0.9092	1011.41 ± 0.23	0.5511 ± 0.0091
293.15 K, x1 = 1	1069.54 ± 0.24	0.6173 ± 0.0096
298.15 K, x1 = 0.1099	705.39 ± 0.67	0.3737 ± 0.0081
298.15 K, x1 = 0.2176	730.61 ± 0.62	0.3723 ± 0.008
298.15 K, x1 = 0.3229	758.68 ± 0.57	0.3796 ± 0.008
298.15 K, x1 = 0.4259	789.63 ± 0.52	0.3911 ± 0.0081
298.15 K, x1 = 0.5266	823.98 ± 0.46	0.4095 ± 0.0082
298.15 K, x1 = 0.6252	861.86 ± 0.4	0.4261 ± 0.0083
298.15 K, x1 = 0.7218	904.23 ± 0.33	0.45 ± 0.0084
298.15 K, x1 = 0.8165	951.63 ± 0.27	0.4779 ± 0.0086
298.15 K, x1 = 0.9092	1005.04 ± 0.22	0.5169 ± 0.0089
298.15 K, x1 = 1	1062.95 ± 0.23	0.5734 ± 0.0093
303.15 K, x1 = 0.1099	700.93 ± 0.67	0.3559 ± 0.0079
303.15 K, x1 = 0.2176	725.89 ± 0.63	0.353 ± 0.0079
303.15 K, x1 = 0.3229	753.73 ± 0.58	0.3585 ± 0.0079
303.15 K, x1 = 0.4259	784.46 ± 0.53	0.3719 ± 0.008
303.15 K, x1 = 0.5266	818.56 ± 0.47	0.3855 ± 0.008
303.15 K, x1 = 0.6252	856.24 ± 0.41	0.4015 ± 0.0081
303.15 K, x1 = 0.7218	898.37 ± 0.34	0.423 ± 0.0082
303.15 K, x1 = 0.8165	945.53 ± 0.27	0.4491 ± 0.0084
303.15 K, x1 = 0.9092	998.7 ± 0.22	0.4793 ± 0.0086
303.15 K, x1 = 1	1056.35 ± 0.23	0.5403 ± 0.009
313.15 K, x1 = 0.1099	691.78 ± 0.68	0.32 ± 0.0077
313.15 K, x1 = 0.2176	716.32 ± 0.64	0.3195 ± 0.0077
313.15 K, x1 = 0.3229	743.68 ± 0.59	0.3248 ± 0.0077
313.15 K, x1 = 0.4259	773.95 ± 0.54	0.3316 ± 0.0077
313.15 K, x1 = 0.5266	807.58 ± 0.48	0.3435 ± 0.0077
313.15 K, x1 = 0.6252	844.82 ± 0.42	0.3588 ± 0.0078
313.15 K, x1 = 0.7218	886.49 ± 0.35	0.3777 ± 0.0079
313.15 K, x1 = 0.8165	933.18 ± 0.28	0.402 ± 0.0081
313.15 K, x1 = 0.9092	985.81 ± 0.23	0.4335 ± 0.0083
313.15 K, x1 = 1	1043.01 ± 0.21	0.4807 ± 0.0086
323.15 K, x1 = 0.1099	682.57 ± 0.7	0.2905 ± 0.0075
323.15 K, x1 = 0.2176	706.62 ± 0.65	0.292 ± 0.0075
323.15 K, x1 = 0.3229	733.52 ± 0.6	0.2932 ± 0.0075
323.15 K, x1 = 0.4259	763.34 ± 0.55	0.2997 ± 0.0075
323.15 K, x1 = 0.5266	796.47 ± 0.5	0.3118 ± 0.0075
323.15 K, x1 = 0.6252	833.28 ± 0.43	0.3251 ± 0.0076
323.15 K, x1 = 0.7218	874.5 ± 0.37	0.3403 ± 0.0077
323.15 K, x1 = 0.8165	920.24 ± 0.3	0.3615 ± 0.0078
323.15 K, x1 = 0.9092	972.84 ± 0.24	0.3906 ± 0.008
323.15 K, x1 = 1	1029.59 ± 0.19	0.427 ± 0.0082
333.15 K, x1 = 0.1099	673.2 ± 0.71	0.2666 ± 0.0073
333.15 K, x1 = 0.2176	696.76 ± 0.66	0.2648 ± 0.0073
333.15 K, x1 = 0.3229	723.19 ± 0.62	0.267 ± 0.0073
333.15 K, x1 = 0.4259	752.53 ± 0.57	0.273 ± 0.0073
333.15 K, x1 = 0.5266	785.19 ± 0.51	0.2828 ± 0.0074
333.15 K, x1 = 0.6252	821.51 ± 0.45	0.2946 ± 0.0074
333.15 K, x1 = 0.7218	862.31 ± 0.38	0.3099 ± 0.0075
333.15 K, x1 = 0.8165	908.07 ± 0.31	0.3291 ± 0.0076
333.15 K, x1 = 0.9092	959.74 ± 0.25	0.3543 ± 0.0078
333.15 K, x1 = 1	1016 ± 0.18	0.3893 ± 0.008
343.15 K, x1 = 0.1099	663.69 ± 0.72	0.2437 ± 0.0072
343.15 K, x1 = 0.2176	686.83 ± 0.68	0.2429 ± 0.0072
343.15 K, x1 = 0.3229	712.79 ± 0.63	0.2462 ± 0.0072
343.15 K, x1 = 0.4259	741.63 ± 0.58	0.2512 ± 0.0072
343.15 K, x1 = 0.5266	773.79 ± 0.53	0.2603 ± 0.0072
343.15 K, x1 = 0.6252	809.67 ± 0.47	0.2725 ± 0.0073
343.15 K, x1 = 0.7218	850.05 ± 0.4	0.2851 ± 0.0074
343.15 K, x1 = 0.8165	894.95 ± 0.33	0.3015 ± 0.0074
343.15 K, x1 = 0.9092	946.54 ± 0.26	0.3252 ± 0.0076
343.15 K, x1 = 1	1002.32 ± 0.16	0.3527 ± 0.0077
